Assay results as given in patent US20210154162A1, “DRUG AND PHARMACEUTICAL COMPOSITION CONTAINING TRANSPORT PROTEIN INHIBITOR, AND USE” (Institute of Basic Medical Sciences Chinese Academy of …, priority 2018, published 2021).

Key:
[1] = system: PD-1; experiment: ID8 ovarian cancer and H22 hepatocarcinoma ascites peritoneal tumor models; type: in vivo, mouse; details: Kyn i.p., 6 days
Procedure: (10) C57BL/6 mice were intraperitoneally injected with 1×10^6 ID8 ovarian cancer cells. After 10 days, mice were intraperitoneally administered with PBS, Kyn, DMF or Kyn+DMF for 6 days. CD8^+ T cells from ascites were isolated and PD-1 expression was determined by flow cytometry (n=5).

[2] = system: CD8^+ T cells; experiment: Kyn i.p. injection in WT or AhR-/- C57BL/6 mice, analysis of CD8+ T cells; type: in vivo, mouse
Procedure: (1) WT C57BL/6 mice were i.p. injected with PBS or Kyn (50 μg, once per day) for 5 days, and CD8^+ T cells were sorted by FACS from the spleen and mesenteric lymph nodes. PD-1 expression was determined by flow cytometry (FIG. 6A). Some CD8^+ T cells from spleen were immunostained with AhR and DAPI (FIG. 6B), and the mRNA expression of PAT4 and SLC7A8 was determined by real-time PCR (FIG. 6C). […] Bar, […]. (2) The experimental steps were the same as those of step (1), except that AhR^−/− mice were used. (3) PD-1 expression in resting or anti-CD3/CD28 bead-activated splenic CD8^+ T cells was determined, wherein said cells were isolated from AhR^−/− C57BL/6 mice injected with PBS or Kyn for 5 days.

[3] = system: PD-1; experiment: PD-1 expression in resting CD8+ T cells treated with Kyn (flow cytometry); type: cell-based, mouse
Procedure: (1) CD8^+ T cells were treated with Kyn (200 μM) for the time periods. The expression of PD-1 was determined by flow cytometry.

[4] = system: OT-1 CD8^+ T cells; experiment: IFN-γ expression of OT-1 CD8+ T cells co-cultured with OVA-peptide loaded APCs; type: cell-based, mouse; details: OT-1 CD8+ T cells pretreated with Kyn 200 μM 72 h, upon PD-1 blockade
Procedure: (10) Splenic APCs pulsed with OVA257-264 (2 μg/ml) were co-cultured with OT-1 CD8^+ T cells in the presence of IgG or anti-PD-1 neutralizing antibody (10 μg/ml) for 72 h. IFN-γ expression was measured by flow cytometry (left). Or, CD8^+ T cells from OT-1 mice were treated with Kyn (200 μM) for 72 h, then co-cultured with OVA-peptide loaded APCs and treated with or without anti-PD-1 neutralizing antibody for 72 h (right). The data represented mean±SEM.

[5] = system: PAT4 and SLC7A8; experiment: Effect of Kyn on the expression of PAT4 and SLC7A8 in human peripheral blood CD8+ T cells (fluorescence quantitative PCR); type: cell-based; details: activated peripheral blood CD8+ T cells of breast cancer patients, 200 μM Kyn, 48 h
Procedure: Mononuclear cells were isolated and obtained from the peripheral whole blood of breast cancer patients by using Ficoll. CD8^+ T cells were sorted by magnetic beads, and seeded into a U-shaped bottom 96-well plate (100000 cells/well) while anti-CD3/CD28 magnetic beads were added to activate T cells. The culture medium was RPMI-1640 added with 10 ng/mL human IL-2. Cells were grouped and treated with drugs as follows. Control group 1 (PBS): culture medium+PBS; Experimental group 2 (Kyn): culture medium+200 μM Kyn; RNA was collected from cells in each group after 48 h, and the expression of PAT4 and SLC7A8 was determined by fluorescence quantitative PCR.

[6] = system: PD-1; experiment: Effect of SAR and BCH on PD-1 expression in human peripheral blood CD8+ T cells (flow cytometry); type: cell-based; details: breast cancer patients, 200 μM Kyn, 48 h
Procedure: Mononuclear cells were isolated and obtained from the peripheral whole blood of breast cancer patients by using Ficoll. CD8^+ T cells were sorted by magnetic beads, and seeded into a U-shaped bottom 96-well plate (100000 cells/well) while anti-CD3/CD28 magnetic beads were added to activate T cells. The culture medium was RPMI-1640 added with 10 ng/mL human IL-2. Cells were grouped and treated with drugs as follows.
Control group 1 (PBS): culture medium+PBS;
Experimental group 2 (Kyn): culture medium+200 μM Kyn;
Experimental group 3 (Kyn+SAR): culture medium+200 μM Kyn+10 mM SAR; Experimental group 4 (Kyn+BCH): culture medium+200 μM Kyn+100 μM BCH;
The expression level of PD-1 in CD8^+ T cells of each group was determined by flow cytometry after 48 h.

[7] = system: AhR; experiment: AhR translocation in human peripheral CD8+ T cells; type: cell-based; details: resting and activated peripheral CD8+ T cells from breast and lung cancer patients, Kyn treatment
[8] = system: PAT4 and SLC7A8; experiment: PAT4 and SLC7A8 expression in activated CD8+ T cells (real-time PCR, immunostaining); type: cell-based, mouse; details: activated CD8+ T cells, Kyn 200 μM, 24 h
Procedure: (2) Activated CD8^+ T cells were treated with PBS or Kyn (200 μM) for 24 h. The expression of PAT4 and SLC7A8 was determined by real-time PCR (left) and immunostaining (right). Bar, […].
(6) The mRNA expression of PAT4 and SLC7A8 was determined in activated CD8^+ T cells treated with PBS, Kyn, Kyn/CH-223191 (10 μM) or Kyn/DMF (20 μM) for 48 h.

[9] = system: PAT4 and SLC7A8; experiment: Effect of Kyn on the expression of PAT4 and SLC7A8 in OT-1 CD8+ T cells (fluorescence quantitative PCR); type: cell-based; details: activated mouse CD8+ T cells, 200 μM Kyn, 48 h
Procedure: Splenic CD8^+ T cells of OT-1 mice were obtained by magnetic bead sorting, and seeded into a 24-well plate (1 million cells/well) while anti-CD3/CD28 magnetic beads were added to activate T cells. The culture medium was RPMI-1640 added with 10 ng/mL mouse IL-2 and […] β-mercaptoethanol. Cells were grouped and treated with drugs as follows. Control group 1 (PBS): culture medium+PBS; Experimental group 2 (Kyn): culture medium+200 μM Kyn; RNA was collected from cells in each group after 48 h, and the expression of PAT4 and SLC7A8 was determined by fluorescence quantitative PCR.

[10] = system: PD-1 promoter; experiment: PD-1 promoter luciferase reporter in HEK293T cells; type: cell-based; details: Kyn 48 h
Procedure: (6) HEK293T cells were transiently co-transfected with the luciferase reporter PGL3 coupled to the PD-1 promoter together with an AhR or an empty plasmid for 24 h and then treated with Kyn for another 48 h.

Nc1ccccc1C(=O)CC(N)C(=O)O (stereo not shown) [Kyn, kynurenine]
PD-1 expression in peritoneal, splenic or lymph node CD8+ T cells [1]: promoted | expression of IFN-γ and TNF-α [1]: inhibited | PD-1 expression ([2]; AhR-/- mice, Kyn for 5 days): failed to induce | PD-1 expression in CD8+ T cells of spleen and lymph nodes ([2]; WT C57BL/6 mice, Kyn 50 μg i.p. once per day, 5 days): upregulated PD-1 expression | expression of Kyn transporters SLC7A8 and PAT4 ([2]; WT C57BL/6 mice, Kyn 50 μg i.p., 5 days): upregulated | AhR localisation in CD8+ T cells ([2]; WT C57BL/6 mice, Kyn 50 μg i.p., 5 days, spleen): translocated to the nucleus | time point of initial increase of PD-1 ([3]; Kyn alone): 48 h | PD-1 expression ([3]; Kyn alone 200 μM): enough to upregulate PD-1 | production of IFN-γ [4]: upregulated | expression of PAT4 and SLC7A8 [5]: significantly upregulating | PD-1 expression in peripheral blood CD8+ T cells [6]: significant increased | AhR localisation [7]: promoted the translocation of AhR from the cytosol to nucleus | expression of SLC7A8 and PAT4 [8]: strikingly resulted in the upregulation | expression of PAT4 and SLC7A8 [9]: significantly upregulating | increase of the luciferase activity ([10]; HEK293T overexpressing AhR): 12 fold | increase of the luciferase activity ([10]; HEK293T with intrinsic AhR expression (empty control plasmid)): 4 fold
